Species: Rattus norvegicus
Experiment: Open TG-GATES - Regimen: Daily Repeat
Format: toxicity, organism-based, Sprague-Dawley
Parameters: regimen Daily Repeat, gender Male, age 6 weeks
Conditions: in vivo, po, 0 mg/kg, route gavage, dose level Control; for APTT / Bas / Eos / Fbg / Hb / Ht / Lym / MCH / MCHC / MCV / Mono / Neu / PT / Plat / RBC / Ret / WBC: tissue Blood; for KIDNEY_L / KIDNEY_R / KIDNEY_TOTAL: tissue Kidney; for LIVER: tissue Liver; for A/G / ALP / ALT / AST / BUN / CRE / Ca / Cl / DBIL / GLC / IP / K / LDH / Na / PL / RALB / TBIL / TC / TG / TP / gamma-GTP: tissue Plasma

CN(C)CCN(Cc1cccs1)c1ccccn1
TERMINAL_BW (72 h, time 3 day): 217.2 g | APTT (72 h, time 3 day): 22.4 s | Bas (72 h, time 3 day): 0% | Eos (72 h, time 3 day): 0.6% | Fbg (72 h, time 3 day): 290.8 mg/dL | Hb (72 h, time 3 day): 12.9 g/dL | Ht (72 h, time 3 day): 38.8% | Lym (72 h, time 3 day): 80.4% | MCH (72 h, time 3 day): 21.3 pg | MCHC (72 h, time 3 day): 33.4% | MCV (72 h, time 3 day): 63.8 fL | Mono (72 h, time 3 day): 1.8% | Neu (72 h, time 3 day): 16.4% | PT (72 h, time 3 day): 15.9 s | Plat (72 h, time 3 day): 125.8 x10_4/uL | RBC (72 h, time 3 day): 609 x10_4/ul | Ret (72 h, time 3 day): 6.8% | WBC (72 h, time 3 day): 107.9 x10_2/uL | KIDNEY_L (72 h, time 3 day): 1 g | KIDNEY_R (72 h, time 3 day): 1 g | KIDNEY_TOTAL (72 h, time 3 day): 2 g | LIVER (72 h, time 3 day): 10.2 g | A/G (72 h, time 3 day): 1.2 | ALP (72 h, time 3 day): 1533 IU/L | ALT (72 h, time 3 day): 39.2 IU/L | AST (72 h, time 3 day): 68 IU/L | BUN (72 h, time 3 day): 16.8 mg/dL | CRE (72 h, time 3 day): 0.2 mg/dL | Ca (72 h, time 3 day): 10.9 mg/dL | Cl (72 h, time 3 day): 106.4 meq/L | DBIL (72 h, time 3 day): 0.002 mg/dL | GLC (72 h, time 3 day): 187.2 mg/dL | IP (72 h, time 3 day): 7.1 mg/dL | K (72 h, time 3 day): 4.4 meq/L | LDH (72 h, time 3 day): 210.8 IU/L | Na (72 h, time 3 day): 142.6 meq/L | PL (72 h, time 3 day): 140.6 mg/dL | RALB (72 h, time 3 day): 3 g/dL | TBIL (72 h, time 3 day): 0.012 mg/dL | TC (72 h, time 3 day): 75.4 mg/dL | TG (72 h, time 3 day): 86.8 mg/dL | TP (72 h, time 3 day): 5.6 g/dL | gamma-GTP (72 h, time 3 day): 1 IU/L | TERMINAL_BW ([…], time 7 day): 246.2 g | TERMINAL_BW ([…], time 14 day): 277 g | TERMINAL_BW ([…], time 28 day): 347.3 g | APTT ([…], time 7 day): 21.1 s | Bas ([…], time 7 day): 0% | Eos ([…], time 7 day): 0.6% | Fbg ([…], time 7 day): 320.8 mg/dL | Hb ([…], time 7 day): 13.4 g/dL | Ht ([…], time 7 day): 39.8% | Lym ([…], time 7 day): 80.2% | MCH ([…], time 7 day): 20.8 pg | MCHC ([…], time 7 day): 33.6% | MCV ([…], time 7 day): 61.8 fL | Mono ([…], time 7 day): 2% | Neu ([…], time 7 day): 16.4% | PT ([…], time 7 day): 17 s | Plat ([…], time 7 day): 131 x10_4/uL | RBC ([…], time 7 day): 644.2 x10_4/ul | Ret ([…], time 7 day): 5.8% | WBC ([…], time 7 day): 122.7 x10_2/uL | APTT ([…], time 14 day): 21.6 s | Bas ([…], time 14 day): 0% | Eos ([…], time 14 day): 1% | Fbg ([…], time 14 day): 303.8 mg/dL | Hb ([…], time 14 day): 14 g/dL | Ht ([…], time 14 day): 40.9% | Lym ([…], time 14 day): 81.8% | MCH ([…], time 14 day): 20.3 pg | MCHC ([…], time 14 day): 34.2% | MCV ([…], time 14 day): 59.4 fL | Mono ([…], time 14 day): 2% | Neu ([…], time 14 day): 14.4% | PT ([…], time 14 day): 16.7 s | Plat ([…], time 14 day): 112.6 x10_4/uL | RBC ([…], time 14 day): 689.8 x10_4/ul | Ret ([…], time 14 day): 4.2% | WBC ([…], time 14 day): 133.3 x10_2/uL | APTT ([…], time 28 day): 23.4 s | Bas ([…], time 28 day): 0% | Eos ([…], time 28 day): 1% | Fbg ([…], time 28 day): 288.2 mg/dL | Hb ([…], time 28 day): 14.7 g/dL | Ht ([…], time 28 day): 42.7% | Lym ([…], time 28 day): 79% | MCH ([…], time 28 day): 19.5 pg | MCHC ([…], time 28 day): 34.3% | MCV ([…], time 28 day): 56.9 fL | Mono ([…], time 28 day): 1.6% | Neu ([…], time 28 day): 17.4% | PT ([…], time 28 day): 16.1 s | Plat ([…], time 28 day): 97.6 x10_4/uL | RBC ([…], time 28 day): 751.4 x10_4/ul | Ret ([…], time 28 day): 2.9% | WBC ([…], time 28 day): 92 x10_2/uL | KIDNEY_L ([…], time 7 day): 1 g | KIDNEY_R ([…], time 7 day): 1 g | KIDNEY_TOTAL ([…], time 7 day): 2.1 g | KIDNEY_L ([…], time 14 day): 1.1 g | KIDNEY_R ([…], time 14 day): 1.1 g | KIDNEY_TOTAL ([…], time 14 day): 2.3 g | KIDNEY_L ([…], time 28 day): 1.3 g | KIDNEY_R ([…], time 28 day): 1.3 g | KIDNEY_TOTAL ([…], time 28 day): 2.5 g | LIVER ([…], time 7 day): 10.9 g | LIVER ([…], time 14 day): 11.5 g | LIVER ([…], time 28 day): 13.4 g | A/G ([…], time 7 day): 1.2 | ALP ([…], time 7 day): 1666.2 IU/L | ALT ([…], time 7 day): 40 IU/L | AST ([…], time 7 day): 68 IU/L | BUN ([…], time 7 day): 17.8 mg/dL | CRE ([…], time 7 day): 0.2 mg/dL | Ca ([…], time 7 day): 10.6 mg/dL | Cl ([…], time 7 day): 107.4 meq/L | DBIL ([…], time 7 day): 0 mg/dL | GLC ([…], time 7 day): 182.4 mg/dL | IP ([…], time 7 day): 7.3 mg/dL | K ([…], time 7 day): 4.4 meq/L | LDH ([…], time 7 day): 164.4 IU/L | Na ([…], time 7 day): 144.4 meq/L | PL ([…], time 7 day): 146.6 mg/dL | RALB ([…], time 7 day): 3 g/dL | TBIL ([…], time 7 day): 0.01 mg/dL | TC ([…], time 7 day): 72.6 mg/dL | TG ([…], time 7 day): 125.8 mg/dL | TP ([…], time 7 day): 5.6 g/dL | gamma-GTP ([…], time 7 day): 1.8 IU/L | A/G ([…], time 14 day): 1.1 | ALP ([…], time 14 day): 1834 IU/L | ALT ([…], time 14 day): 39.6 IU/L | AST ([…], time 14 day): 68 IU/L | BUN ([…], time 14 day): 19 mg/dL | CRE ([…], time 14 day): 0.2 mg/dL | Ca ([…], time 14 day): 10.1 mg/dL | Cl ([…], time 14 day): 107.4 meq/L | DBIL ([…], time 14 day): 0.002 mg/dL | GLC ([…], time 14 day): 194.8 mg/dL | IP ([…], time 14 day): 6.7 mg/dL | K ([…], time 14 day): 4.1 meq/L | LDH ([…], time 14 day): 160.2 IU/L | Na ([…], time 14 day): 142.4 meq/L | PL ([…], time 14 day): 138 mg/dL | RALB ([…], time 14 day): 3 g/dL | TBIL ([…], time 14 day): 0.008 mg/dL | TC ([…], time 14 day): 63.8 mg/dL | TG ([…], time 14 day): 128 mg/dL | TP ([…], time 14 day): 5.5 g/dL | gamma-GTP ([…], time 14 day): 1.2 IU/L | A/G ([…], time 28 day): 1.2 | ALP ([…], time 28 day): 1175.4 IU/L | ALT ([…], time 28 day): 42.6 IU/L | AST ([…], time 28 day): 66.4 IU/L | BUN ([…], time 28 day): 18.6 mg/dL | CRE ([…], time 28 day): 0.2 mg/dL | Ca ([…], time 28 day): 10.2 mg/dL | Cl ([…], time 28 day): 107.8 meq/L | DBIL ([…], time 28 day): 0.004 mg/dL | GLC ([…], time 28 day): 183.6 mg/dL | IP ([…], time 28 day): 6 mg/dL | K ([…], time 28 day): 4.1 meq/L | LDH ([…], time 28 day): 156 IU/L | Na ([…], time 28 day): 143.2 meq/L | PL ([…], time 28 day): 131.8 mg/dL | RALB ([…], time 28 day): 3.1 g/dL | TBIL ([…], time 28 day): 0.012 mg/dL | TC ([…], time 28 day): 67 mg/dL | TG ([…], time 28 day): 103 mg/dL | TP ([…], time 28 day): 5.7 g/dL | gamma-GTP ([…], time 28 day): 1.8 IU/L
